{"source": "patent US20240398789A1", "about": "“PHARMACEUTICAL COMPOSITION FOR ENHANCING ANTI-TUMOR EFFECT OF EZH2 INHIBITOR AND USE THEREOF” (PEKING UNIVERSITY THIRD HOSPITAL, priority 2021, published 2024)", "key": {"melanoma B16F10 cells [1]": {"system": "melanoma B16F10 cells", "test": "IncuCyte S3 live-cell proliferation of B16F10 cells", "assay_type": "cell-based", "protocol": "(§1) FIG. 1: Hematological tumors are more sensitive to GSK126 than solid tumors. (A) Proliferation of B16F10, Huh7 and SMMC7721 cells in GSK126 (10-20 μM) treatment was monitored by Incucyte S3 with 6 replicates per group; (B) Viabilities of Daudi and THP-1cells after GSK126 (200 nM to 24 μM) treatment for 24 h and 48 h were measured by CCK-8 assay with 5 replicates per group; (C) Western blot (WB) analysis on B16F10 cells after 48 h without or with GSK126 treatment (6 μM, and 12 μM), with H3 used as an internal reference for histone. 5 to 6 replicates were established for each group, with *P<0.05, **P<0.01, and ***P<0.001, and ns for no statistical difference.\nP=0.0108, P=0.0385, Kaplan-Meier survival analysis; (C) effect of telmisartan at different concentrations on the proliferation of U87 cells (left) and U251 cells (right) (3 replicates per group); (D) effect of fenofibrate at different concentrations on the proliferation of B16F10 cells (left) and 4T1 cells (right) (3 replicates per group); (E) FACS quantitative analysis of the percentage of cells positive for EdU (FITC+) staining 48 h after the telmisartan treatment on U87 and U251 cells. Single cells were first gated, followed by FITC+cells. The percentage of FITC+ cells was listed above the corresponding cell population. […]"}, "hepatoma Huh7 cells": {"system": "hepatoma Huh7 cells", "test": "IncuCyte S3 live-cell proliferation of Huh7 cells", "assay_type": "cell-based", "protocol": "as §1\n(§2) In order to accurately assess the responsiveness of solid tumor cells to EZH2 inhibitors, the effects of GSK126 at different concentrations on the proliferation of melanoma B16F10 cells and hepatoma Huh7 and SMMC-7721 cells were initially detected by IncuCyte S3® Live-Cell Analysis System."}, "hepatoma SMMC-7721 cells": {"system": "hepatoma SMMC-7721 cells", "test": "IncuCyte S3 live-cell proliferation of SMMC-7721 cells", "assay_type": "cell-based", "protocol": "as §1\n(§3) FIG. 6: Lipid-modulating drugs can enhance the inhibitory effect of GSK126 on cancer cells. […] 3 to 5 replicates were established for each group, with *P<0.05, **P<0.01, and ***P<0.001.\nas §2"}, "[2]": {"system": "Burkitt's lymphoma cells (Daudi)", "test": "CCK-8 cell proliferation assay, Daudi", "assay_type": "cell-based", "protocol": "as §1"}, "THP-1 cells": {"system": "THP-1 cells", "test": "CCK-8 cell proliferation assay, THP-1", "assay_type": "cell-based", "conditions": "10 μM GSK126 for 24 h and 48 h", "protocol": "as §1"}, "[3]": {"system": "H3K27me3 level in B16F10 cells", "test": "Western blot of H3K27me3 in B16F10 cells", "assay_type": "cell-based", "conditions": "GSK126 6 μM, 48 h, H3 internal reference", "protocol": "as §1"}, "melanoma cells B16F10": {"system": "melanoma cells B16F10", "test": "Cell scratch assay (migration) of B16F10 cells", "assay_type": "cell-based", "conditions": "GSK126 10 μM, 36 h of culture, vs control group", "protocol": "(§4) FIG. 2: Melanoma cells B16F10 are less sensitive to GSK126. (A) Cell scratch assay, showing the effect of GSK126 (10 μM) treatment on the migration capability of B16F10 cells, with 3 replicates per group; (B-C) the effect of GSK126 (10, 13, and 15 μM) on the apoptosis rate of B16F10 cells, as examined by flow cytometry (C) and Annexin V staining assay. 3 replicates were established for each group, with *P<0.05, **P<0.01, and ***P<0.001, and ns for no statistical difference.\n(§5) Next, to further validate the effect of GSK126 at 10 μM on melanoma cells B16F10,scratch assay was conducted. […] In addition, to assess the anti-survival effect of GSK126, B16F10 cells were treated by GSK126 at different concentrations for different periods, and the apoptosis rate of the cells was analyzed by flow cytometry (FIG. 2B) and live-cell fluorescence imaging (FIG. 2C)."}, "B16F10 cells": {"system": "B16F10 cells", "test": "Apoptosis of B16F10 cells by flow cytometry and live-cell fluorescence imaging", "assay_type": "cell-based", "conditions": "GSK126 10 μM", "protocol": "as §4, §5"}, "melanoma B16F10 cells [4]": {"system": "melanoma B16F10 cells", "test": "Fatty acid metabolite levels in B16F10 cells", "assay_type": "cell-based", "conditions": "GSK126 group", "source_text": "FIG. 3: GSK126 results in significant elevated levels of 6 fatty acids in melanoma B16F10 cells.\nAmong the metabolites with significant changes, the levels of many fatty acids increased in the GSK126 group. There are five polyunsaturated fatty acids, including α-linolenic acid, DHA, EPA, linoleic acid, and γ-linolenic acid) and one monounsaturated fatty acid, i.e., 10Z-heptadienoic acid (FIG. 3)."}, "C57BL/6 mice": {"system": "C57BL/6 mice", "test": "Lipid accumulation in B16F10 tumor-bearing C57BL/6 mice", "assay_type": "in vivo", "conditions": "B16F10 tumor-bearing C57BL/6 mice treated with GSK126", "source_text": "(§6) FIG. 4: Lipid accumulation in mice after GSK126 treatment. (A) H & E and oil red O staining of the liver tissue sections of the tumor-bearing mice in the control group and the GSK126 treatment group, in which the statistical results of negative or positive staining area were shown on the right (3 replicates per group); (B) TG level in the serum of the tumor-bearing mice in the control group and the GSK126 treatment group (5 replicates per group); (C-D) mRNA (C) and protein (D) levels of the genes related to fatty acid anabolism in the GSK126-treated HCC cells, as detected by RT-qPCR and WB (3 replicates per group). 3 to 5 replicates were established for each group, with *P<0.05, **P<0.01.\n(§7) C57BL/6 mice (6-8 weeks old) were subcutaneously implanted with B16F10 cells and then treated with GSK126. […] Therefore, the expression of fatty acid synthesis-related genes in GSK126-treated hepatocellular carcinoma (HCC) cell lines SMMC7721 and Huh7 was further detected."}, "[5]": {"system": "ACLY, FASN, SCD in SMMC7721 cells", "test": "RT-qPCR/WB of fatty acid synthesis genes in SMMC7721 cells", "assay_type": "cell-based", "conditions": "after GSK126 treatment", "source_text": "as §6, §3, §7"}, "[6]": {"system": "ACLY, FASN, SCD in Huh7 cells", "test": "RT-qPCR/WB of fatty acid synthesis genes in Huh7 cells", "assay_type": "cell-based", "conditions": "after GSK126 treatment", "source_text": "as §6, §7"}, "[7]": {"system": "mouse brain glioma cell line (GL261)", "test": "IncuCyte S3 live-cell proliferation of GL261 cells", "assay_type": "cell-based", "experimental": "3 to 6 replicates were established for each group, with *P<0.05, **P<0.01, and ***P<0.001, and ns for no statistical difference.\nIncuCyte S3® Live-Cell Analysis System was used to monitor and analyze the growth of mouse glioma GL261 cells. • (1) GL-261 cells in logarithmic growth phase were prepared into a single cell suspension, and the cells were counted; • (2) GL261 cells were added into a 96-well plate at a density of 8x10^4 cells/mL, with 4-6 replicate wells per each group; • (3) The 96-well plate was then placed in an incubator for another 12-24 hours, and the plate was refreshed with a culture medium containing the drug at the cell confluence of about 20-30%. GSK126 and fenofibrate (FF) were serially diluted using the medium; • (4) The 96-well plate was then placed in the incubator suitable for the instrument, and detected with IncuCyte S3® Live-Cell Analysis System. Cell growth images of 4 different areas in each well were taken at an interval of 4 h using a 10× objective lens. • (5) The plate was real-time monitored for 48 h, and the cell confluence was determined by defining the cell edge using IncuCyte S3 image analysis software and normalized to the cell confluence at 0 h. […]"}, "[8]": {"system": "hematologic cancer cell lines", "conditions": "most hematologic cancer cell lines; many studies; read-out: IC50 (half-maximal inhibitory concentration); cited from earlier work"}, "human glioma cells U87": {"system": "human glioma cells U87", "test": "Incucyte real-time proliferation of U87 cells", "assay_type": "cell-based", "conditions": "telmisartan at different concentrations", "protocol": "(§8) P=0.0108, P=0.0385, Kaplan-Meier survival analysis; (C) effect of telmisartan at different concentrations on the proliferation of U87 cells (left) and U251 cells (right) (3 replicates per group); (D) effect of fenofibrate at different concentrations on the proliferation of B16F10 cells (left) and 4T1 cells (right) (3 replicates per group); (E) FACS quantitative analysis of the percentage of cells positive for EdU (FITC+) staining 48 h after the telmisartan treatment on U87 and U251 cells. Single cells were first gated, followed by FITC+cells. The percentage of FITC+ cells was listed above the corresponding cell population. 3 replicates were established for each group, with *P<0.05, **P<0.01, ***P<0.001, and ****P<0.0001, and ns for no statistical difference.\n(§9) Therefore, telmisartan and fenofibrate were selected to explore whether lipid metabolism-regulating drugs have anti-tumor effects. […] The effect of telmisartan (50 μM) on cell proliferation was further verified by EdU staining."}, "human glioma cells U251": {"system": "human glioma cells U251", "test": "Incucyte real-time proliferation of U251 cells", "assay_type": "cell-based", "conditions": "telmisartan at different concentrations", "protocol": "as §8, §9"}, "U87 cells": {"system": "U87 cells", "test": "EdU staining with flow cytometry, U87", "assay_type": "cell-based, human", "conditions": "telmisartan 50 μM, 48 h, 24.25% before treatment", "protocol": "as §8, §9"}, "U251 cells": {"system": "U251 cells", "test": "EdU staining with flow cytometry, U251", "assay_type": "cell-based, human", "conditions": "telmisartan 50 μM, 48 h, 41.44% before treatment", "protocol": "as §8, §9"}, "[9]": {"conditions": "GSK126 at different concentrations (10-20 μM)"}}}
{"smiles": "CC[C@H](C)n1cc(C)c2c(C(=O)NCc3c(C)cc(C)[nH]c3=O)cc(-c3ccc(N4CCNCC4)nc3)cc21", "note": "[GSK126]", "values": [{"measurement": "cell proliferation", "setting": "melanoma B16F10 cells [1]; GSK126 10 μM", "value": "less effective"}, {"measurement": "cell proliferation", "setting": "melanoma B16F10 cells [1]; [9]", "value": "inhibited cell proliferation in a dose-dependent manner"}, {"measurement": "cell proliferation", "setting": "hepatoma Huh7 cells; GSK126 10 μM", "value": "less effective"}, {"measurement": "cell proliferation", "setting": "hepatoma Huh7 cells; [9]", "value": "inhibited cell proliferation in a dose-dependent manner"}, {"measurement": "cell proliferation", "setting": "hepatoma SMMC-7721 cells; GSK126 10 μM", "value": "less effective"}, {"measurement": "cell proliferation", "setting": "hepatoma SMMC-7721 cells; [9]", "value": "inhibited cell proliferation in a dose-dependent manner"}, {"measurement": "sensitivity (CCK-8 proliferation)", "setting": "[2]; 1 μM GSK126", "value": "very sensitive"}, {"measurement": "proliferation (CCK-8)", "setting": "[2]; 10 μM GSK126 for 24 h and 48 h", "value": "significantly inhibited"}, {"measurement": "proliferation (CCK-8)", "setting": "THP-1 cells", "value": "significantly inhibited"}, {"measurement": "H3K27me3 level", "setting": "[3]", "value": "significantly down-regulated"}, {"measurement": "cell migration", "setting": "melanoma cells B16F10", "value": "did not effectively inhibit cell migration"}, {"measurement": "apoptosis rate", "setting": "B16F10 cells", "value": "limited capability to induce apoptosis"}, {"measurement": "levels of fatty acids (α-linolenic acid, DHA, EPA, linoleic acid, γ-linolenic acid, 10Z-heptadienoic acid)", "setting": "melanoma B16F10 cells [4]", "value": "increased"}, {"measurement": "fat vacuoles and lipid deposition in liver tissue sections (H & E and oil red O staining)", "setting": "C57BL/6 mice", "value": "significant increase"}, {"measurement": "levels of triglycerides (TG) in blood", "setting": "C57BL/6 mice", "value": "significantly elevated"}, {"measurement": "mRNA and protein levels of ACLY, FASN, and SCD", "setting": "[5]", "value": "significantly elevated"}, {"measurement": "mRNA and protein levels of ACLY, FASN, and SCD", "setting": "[6]", "value": "significantly elevated"}, {"measurement": "inhibitory effect on cell proliferation", "setting": "[7]; GSK126 20 μM alone, compared with 40 μM or combination", "value": "can not achieved"}, {"measurement": "inhibitory effect on cell proliferation", "setting": "[7]; GSK126 40 μM, compared with GSK126 20 μM + fenofibrate 10 μM", "value": "the same as that of the combination"}, {"measurement": "IC50", "setting": "[8]", "value": "< 1000", "unit": "nM"}]}
{"smiles": "CCCc1nc2c(C)cc(-c3nc4ccccc4n3C)cc2n1Cc1ccc(-c2ccccc2C(=O)O)cc1", "note": "[telmisartan]", "values": [{"measurement": "cell proliferation", "setting": "human glioma cells U87", "value": "inhibit the proliferation"}, {"measurement": "cell proliferation", "setting": "human glioma cells U251", "value": "inhibit the proliferation"}, {"measurement": "percentage of EdU+ cells", "setting": "U87 cells", "value": 21.16, "unit": "%"}, {"measurement": "percentage of EdU+ cells", "setting": "U251 cells", "value": 38.78, "unit": "%"}]}
